Measurements published in the OligoGym collection.
HELM strings list units from the 5' end as sugar, base in round brackets, then linkage (d deoxyribose, r ribose, m 2'-O-methyl, p phosphodiester). Strings are as the collection lists them; they lack the last nucleoside at the 3' end of the tested compound. [moe] = 2'-O-(2-methoxyethyl) (MOE); [sp] = phosphorothioate linkage; [m5C] = 5-methylcytosine

Biological target: UBE3A-ATS
Test: mouse, dose not given
Settings: ASO

Substance | 3 h FOB score [score 0-7]
RNA1{[moe](G)[sp].[moe](T)p.[moe](T)p.[moe](T)p.[moe](T)p.[moe](T)p.d([m5C])[sp].d([m5C])[sp].d(A)[sp].d(T)[sp].d(T)[sp].d(T)[sp].d(T)[sp].d(T)[sp].d([m5C])[sp].d(T)[sp].[moe]([m5C])p.[moe](T)[sp].[moe](T)}$$$$ (last 3' nucleoside missing) | 0
RNA1{[moe](G)[sp].[moe](T)p.[moe](T)p.[moe](T)p.[moe](T)p.d(T)[sp].d([m5C])[sp].d([m5C])[sp].d(A)[sp].d(T)[sp].d(T)[sp].d(T)[sp].d(T)[sp].d(T)[sp].d([m5C])[sp].[moe](T)p.[moe]([m5C])p.[moe](T)[sp].[moe](T)}$$$$ (last 3' nucleoside missing) | 0
RNA1{[moe](G)[sp].[moe](T)p.[moe](T)p.[moe](T)p.[moe](T)p.d([m5C])[sp].d(G)[sp].d([m5C])[sp].d([m5C])[sp].d([m5C])[sp].d(G)[sp].d(T)[sp].d(T)[sp].d(A)[sp].d([m5C])[sp].[moe]([m5C])p.[moe](T)p.[moe]([m5C])[sp].[moe](A)}$$$$ (last 3' nucleoside missing) | 5.3
RNA1{[moe](G)[sp].[moe](T)p.[moe](T)p.[moe](T)p.d(T)[sp].d(T)[sp].d([m5C])[sp].d([m5C])[sp].d(A)[sp].d(T)[sp].d(T)[sp].d(T)[sp].d(T)[sp].d(T)[sp].[moe]([m5C])p.[moe](T)p.[moe]([m5C])p.[moe](T)[sp].[moe](T)}$$$$ (last 3' nucleoside missing) | 0
RNA1{[moe](G)[sp].[moe](T)p.[moe](T)p.[moe]([m5C])p.[moe](T)p.d(G)[sp].d(G)[sp].d(A)[sp].d(A)[sp].d(T)[sp].d([m5C])[sp].d(T)[sp].d(T)[sp].d(G)[sp].d(T)[sp].[moe](A)p.[moe](G)p.[moe](A)[sp].[moe](G)}$$$$ (last 3' nucleoside missing) | 4
RNA1{[moe](G)[sp].[moe](T)p.[moe]([m5C])p.[moe](A)[sp].d(T)[sp].d([m5C])[sp].d(T)[sp].d([m5C])[sp].d(G)[sp].d(G)[sp].d(G)[sp].d(T)[sp].[moe](A)p.[moe](T)p.[moe](A)p.[moe](T)[sp].[moe](A)}$$$$ (last 3' nucleoside missing) | 4.3
RNA1{[moe](G)[sp].[moe](T)p.[moe]([m5C])p.[moe](A)p.[moe](A)p.d([m5C])[sp].d([m5C])[sp].d(A)[sp].d(A)[sp].d(T)[sp].d(T)[sp].d(T)[sp].d(G)[sp].d([m5C])[sp].d(T)[sp].[moe](A)p.[moe](T)p.[moe](T)[sp].[moe]([m5C])}$$$$ (last 3' nucleoside missing) | 1
RNA1{[moe](G)[sp].[moe](T)p.[moe]([m5C])p.[moe](A)p.[moe](G)p.d(A)[sp].d(T)[sp].d(T)[sp].d([m5C])[sp].d([m5C])[sp].d(T)[sp].d(A)[sp].d(A)[sp].d(A)[sp].d(T)[sp].[moe](A)p.[moe]([m5C])p.[moe](G)[sp].[moe]([m5C])}$$$$ (last 3' nucleoside missing) | 0
RNA1{[moe](G)[sp].[moe](T)p.[moe]([m5C])p.[moe](A)p.[moe](G)p.d(A)[sp].d([m5C])[sp].d(T)[sp].d(T)[sp].d(A)[sp].d(T)[sp].d(T)[sp].d(G)[sp].d(A)[sp].d(G)[sp].[moe](G)p.[moe](A)p.[moe](T)[sp].[moe](G)}$$$$ (last 3' nucleoside missing) | 4
RNA1{[moe](G)[sp].[moe](T)p.[moe]([m5C])p.[moe](A)p.[moe](T)[sp].d([m5C])[sp].d(T)[sp].d([m5C])[sp].d(G)[sp].d(G)[sp].d(G)[sp].d(T)[sp].d(A)[sp].[moe](T)p.[moe](A)p.[moe](T)[sp].[moe](A)}$$$$ (last 3' nucleoside missing) | 4.3
RNA1{[moe](G)[sp].[moe](T)p.[moe]([m5C])p.[moe](A)p.[moe](T)p.[moe]([m5C])[sp].d(T)[sp].d([m5C])[sp].d(G)[sp].d(G)[sp].d(G)[sp].d(T)[sp].d(A)[sp].d(T)[sp].[moe](A)p.[moe](T)[sp].[moe](A)}$$$$ (last 3' nucleoside missing) | 4.7
RNA1{[moe](G)[sp].[moe](T)p.[moe]([m5C])p.[moe](A)p.[moe](T)p.[moe]([m5C])p.d(T)[sp].d([m5C])[sp].d(G)[sp].d(G)[sp].d(G)[sp].d(T)[sp].d(A)[sp].d(T)[sp].d(A)[sp].d(T)[sp].[moe](A)p.[moe](A)[sp].[moe](A)}$$$$ (last 3' nucleoside missing) | 4
RNA1{[moe](G)[sp].[moe](T)p.[moe]([m5C])p.[moe](A)p.[moe](T)p.d([m5C])[sp].d(A)[sp].d([m5C])[sp].d([m5C])[sp].d(T)[sp].d([m5C])[sp].d(T)[sp].d([m5C])[sp].d(T)[sp].d(T)[sp].[moe]([m5C])p.[moe](A)p.[moe](G)[sp].[moe](G)}$$$$ (last 3' nucleoside missing) | 1
RNA1{[moe](G)[sp].[moe](T)p.[moe]([m5C])p.[moe](A)p.[moe](T)p.d([m5C])[sp].d(T)[sp].d([m5C])[sp].d(G)[sp].d(G)[sp].d(G)[sp].d(T)[sp].d(A)[sp].d(T)[sp].d(A)[sp].[moe](T)p.[moe](A)p.[moe](A)[sp].[moe](A)}$$$$ (last 3' nucleoside missing) | 5.5
